Experimental data from patent US20230044633A1, “OPTICAL BASED METHODS FOR DETERMINING ANTIMICROBIAL DOSING REGIMENS” (University of Houston System, priority 2019, published 2023).
Values after ≈ are worked out from the molar mass of the structure shown.

Tests used:
[1] = test system: Acinetobacter baumannii (AB), ATCC BAA747; experiment: Susceptibility (MIC); assay type: cell-based; settings: ATCCBAA747, wild type AB ATCC BAA747, previously found
Method: Microorganism. A laboratory reference wild type Acinetobacter baumannii (AB), ATCC BAA747, was utilized in the study. The bacteria were stored at −70° C. in Protect® vials. Before the experiment, the bacteria were subcultured at least twice on 5% blood agar plates for 24 hours at 35° C. and fresh colonies were used.

[2] = test system: A. baumannii 1261 (clinical isolate); experiment: Clinical isolate exposed to antibiotic concentration combinations in 4×4 array, tracked over 24 h on 216Dx; assay type: cell-based, Acinetobacter baumannii; settings: clinical isolate of A. baumannii (multidrug resistant)
Method: FIG. 3. A. baumannii 1261 was exposed to 16 different concentration combinations of levofloxacin (L) and amikacin (A). Each sequence of points represents the time course of the bacterial population (baseline inoculum approximately 2-5×10^5 CFU/ml) exposed to one levofloxacin/amikacin concentration combination (e.g., levofloxacin 20 mg/l+amikacin 30 mg/ is shown in hollow squares). Bacteria exposed to drugs with no activity produce profiles that superimpose on those from placebo controls; antimicrobial activity manifests as a delay or absence of growth.
Ineffective antibiotics may have acceptable activity when combined. A clinical isolate of A. baumannii was exposed to different antibiotic concentration combinations in a 4×4 array, and the bacterial burden was tracked over 24 h using the prototype technical platform 216Dx. While the isolate is resistant to levofloxacin, amikacin and cefepime (multidrug resistant), bacterial growth was delayed in selected combinations (FIG. 3) and the profiles were reasonably captured by the mathematical modeling framework (1) shown above (FIG. 1, right).

Row | SMILES | MIC [1] [µg/mL] | susceptibility phenotype of the isolate [2]
1 | C[C@H]1COc2c(N3CCN(C)CC3)c(F)cc3c(=O)c(C(=O)O)cn1c23 [LVX, Levofloxacin] | 0.25 (≈ 0.692 µM) | 
2 | CO/N=C(\C(=O)N[C@@H]1C(=O)N2C(C(=O)[O-])=C(C[N+]3(C)CCCC3)CS[C@H]12)c1csc(N)n1 [cefepime] |  | resistant
3 | NCC[C@H](O)C(=O)N[C@@H]1C[C@H](N)[C@@H](O[C@H]2O[C@H](CN)[C@@H](O)[C@H](O)[C@H]2O)[C@H](O)[C@H]1O[C@H]1O[C@H](CO)[C@@H](O)[C@H](N)[C@H]1O [amikacin] |  | resistant
